Measured values from PMC7753040, “Discovery of a Potent RIPK3 Inhibitor for the Amelioration of Necroptosis-Associated Inflammatory Injury” (Frontiers in Cell and Developmental Biology, 2020).
Like-named read-outs stand apart in the source and are kept apart here.

What was measured:
CYP2C19 = CYP2C19 (Homo sapiens, UniProt P33261); test: Cytochrome P450 inhibition, CYP2C19; assay type: in vitro ADME
Description: (§1) Cytochrome P450 (CYP) inhibitory potency was determined by industrial standard methods as reported previously ([Dong et al., 2015]). Methods to determine potassium channel hERG inhibition and in vivo pharmacokinetic parameters have been previously published ([Lu et al., 2017]).

L929 cells = test: HSV-1-induced necroptosis in L929 cells (cell viability); assay type: cell-based, mouse; conditions: 2 h pretreatment, 24 h after HSV-1 infection
Description: (§2) Cells were seeded in 96-well plates and then treated as indicated. The cell viability was determined by assessment of ATP levels using the CellTiter-Glo Luminescent Cell Viability Assay kit following the manufacture’s instructions (Promega). Luminescence was calculated with SpectraMax i3x (Molecular Devices).
Cell viability was determined by measuring ATP levels. L, LPS; Z, z-VAD. […] After 5 h, cell viability was determined by measuring ATP levels and ICP6 mRNA expression was detected using viral genome extracted from cell culture supernatant. *P < 0.05. **P < 0.01. ***P < 0.001.

MEFs = test: Activation of caspase-3 / apoptosis in MEFs (western blot, cell viability); assay type: cell-based
Description: In vitro kinase activity assays using recombinant RIPK3 and RIPK1 were performed as described in the section “Materials and Methods.” Data represent mean value ± standard deviation. […] NIH3T3-RIPK3 cells were pretreated with indicated compounds for 2 h and subsequently treated with AP20187 (60 nM) for 24 h. Cell viability was determined by measuring ATP levels. […] HeLa-MLKL (1–190) cells were induced by doxycycline (1 μg/ml) for 24 h. Cells were pretreated with indicated compounds for 2 h and subsequently treated with AP20187 (60nM) for 24h. Cell viability was determined by measuring ATP levels. […] (F) MEFs were treated as indicated for 3 h. Cell lysates were harvest and subjected to western-blot analysis for full length and cleaved caspase 3.

mouse BMDM = test: LPS/z-VAD-induced expression of inflammatory cytokines in mouse BMDM (Q-PCR); assay type: cell-based; conditions: 2 h pretreatment, LPS 20 ng/ml plus z-VAD 20 μM, 7 h, mRNA
Description: Total RNA was extracted using TRIzol Reagent (Invitrogen) from cell pellets. cDNA was synthesized using a Revert Aid First Strand cDNA kit (Thermo Fisher Scientifc). Real-time PCR was performed using corresponding primers and Power SYBR® Green PCR Master Mix (Invitrogen). The data were normalized to GAPDH. The primer sequences are as follows: ICP6 Forward: […], Reverse: GGT […]; TNFα Forward: […], Reverse: […]; CCL3 Forward: […], Reverse: […]; CXCL1 Forward: GCACCC […], Reverse: […] CAGA; GAPDH Forward: […], Reverse: […].

[1] = Metabolic stability in mouse liver microsomes; assay type: in vitro ADME; conditions: mouse liver microsomes (MLM)
NIH3T3-RIPK3 cells = test: RIPK3 dimerization-induced cell death in NIH3T3-RIPK3 cells (AP20187); assay type: cell-based, mouse; conditions: 2 h pretreatment, AP20187 60 nM 24 h
From the text: Human colon cancer HT-29 and mouse fibrosarcoma L929 cells were from ATCC. Mouse embryonic fibroblasts (MEF), HT-29 cells stably expressing RIPK3-shRNA and shRNA resistant scramble Flag-tagged RIPK3 (W46), and NIH3T3 cell line stably expressing RIPK3 fused to mutant FK506-binding protein (NIH3T3-RIPK3) were kindly provided by Dr. Xiaodong Wang [National Institute of Biological Sciences (NIBS), Beijing]. HeLa-MLKL (1-190) cell line was a gift from Dr. Zhigao Wang (University of Texas Southwestern Medical Center at Dallas). These cells were cultured in Dulbecco’s modified Eagle’s medium (Hyclone) supplemeted with 10% fetal bovine serum (Invitrogen) and 2 mM L-glutamine (Invitrogen) in a humidified incubator at 37°C and 5% CO2. […]
as §2
In vitro kinase activity assays using recombinant RIPK3 and RIPK1 were performed as described in the section “Materials and Methods.” Data represent mean value ± standard deviation. […] Cell viability was determined by measuring ATP levels. […] Cell viability was determined by measuring ATP levels. […]

CYP1A2 = CYP1A2 (Homo sapiens, UniProt P05177); test: Cytochrome P450 inhibition, CYP1A2; assay type: in vitro ADME
CYP1A2, sequence (P05177 whole entry): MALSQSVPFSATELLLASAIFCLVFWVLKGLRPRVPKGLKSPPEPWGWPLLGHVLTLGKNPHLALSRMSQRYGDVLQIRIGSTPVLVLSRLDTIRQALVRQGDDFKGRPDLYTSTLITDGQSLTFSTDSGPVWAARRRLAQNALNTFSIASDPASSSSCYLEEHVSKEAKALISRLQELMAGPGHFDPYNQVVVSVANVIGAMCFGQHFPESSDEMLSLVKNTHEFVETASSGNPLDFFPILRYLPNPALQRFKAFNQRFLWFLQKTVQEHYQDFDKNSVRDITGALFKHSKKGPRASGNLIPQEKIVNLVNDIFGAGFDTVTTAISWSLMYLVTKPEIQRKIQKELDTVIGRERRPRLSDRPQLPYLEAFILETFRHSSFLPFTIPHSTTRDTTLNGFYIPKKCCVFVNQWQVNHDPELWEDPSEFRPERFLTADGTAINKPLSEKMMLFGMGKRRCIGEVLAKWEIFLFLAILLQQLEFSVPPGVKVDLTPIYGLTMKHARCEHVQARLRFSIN
Description: as §1

[2] = In vivo mouse pharmacokinetic study; conditions: male ICR mouse
Description: as §1
(C) Pharmacokinetic parameters of Zharp-99 determined in male ICR mouse.

[3] = tested on: phosphorylation of RIPK1, RIPK3, and MLKL; test: Western blot of phosphorylation of RIPK1, RIPK3 and MLKL in HT-29 cells upon necroptotic stimuli; assay type: cell-based, human; conditions: 2 h pretreatment, TNF-α/Smac mimetic/z-VAD 8 h
Description: (§3) The cell pellets were harvested and dissolved in lysis buffer (20 mM Tris–HCl, pH 7.4 150 mM NaCl, 1% Triton X-100, 1 mM Na3VO4, 10% glycerol, 25 mM β-glycerol-phosphate, 0.1 mM PMSF, with the Sigma phosphatase inhibitors and the Roche Pierce protease inhibitor set). The re-suspended cell pellet was then incubated on ice for 20 min, followed by centrifugation at 13000 × g for 20 min at 4°C. The supernatants were collected and protein concentrations were measured using the BCA Protein Assay Kit (Thermo Fisher Scientifc, United States). Finally, cell lysates were subjected for western-blot analysis of the indicated antibodies.
(§4) Cell lysates were prepared for immunoprecipitation using an anti-Flag antibody. The levels of RIPK3 and RIPK1 in the immunocomplex were determined by western blot analysis.

[4] = tested on: phosphorylation of RIPK1, RIPK3, and MLKL; test: Western blot of phosphorylation of RIPK1, RIPK3 and MLKL in L929 cells upon necroptotic stimuli; assay type: cell-based, mouse; conditions: 2 h pretreatment, TNF-α/z-VAD 4 h
Description: as §3, §4

CYP2C19, sequence (P33261 whole entry): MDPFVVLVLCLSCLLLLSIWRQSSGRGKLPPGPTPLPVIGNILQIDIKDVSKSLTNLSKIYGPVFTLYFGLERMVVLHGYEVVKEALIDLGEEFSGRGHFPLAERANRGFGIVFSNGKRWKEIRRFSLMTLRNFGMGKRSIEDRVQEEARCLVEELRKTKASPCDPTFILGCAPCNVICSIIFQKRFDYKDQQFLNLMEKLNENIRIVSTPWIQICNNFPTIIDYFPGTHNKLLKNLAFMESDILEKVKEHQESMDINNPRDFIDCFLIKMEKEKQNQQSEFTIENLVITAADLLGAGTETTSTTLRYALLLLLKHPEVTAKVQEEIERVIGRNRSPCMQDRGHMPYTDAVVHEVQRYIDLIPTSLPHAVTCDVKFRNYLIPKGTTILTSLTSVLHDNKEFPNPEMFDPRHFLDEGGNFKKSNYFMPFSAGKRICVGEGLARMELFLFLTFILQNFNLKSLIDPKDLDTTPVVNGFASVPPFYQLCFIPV

For `O=S1(=O)C=C(C2CC2)c2cc3nccc(Nc4ccc5scnc5c4)c3cc21` [Zharp-99], the “% of CYP inhibiton 2C19” value (CYP2C19; 10 μM) was “did not inhibit”, the inhibition at 10 µM (CYP2C19; human, read-out: % of CYP inhibiton 2C19) was 4.15% and the “inhibition of HSV-1 induced necroptosis” value (L929 cells) was “significantly inhibited”. For the same compound, the “induction of apoptosis compared to GSK’872” value (MEFs; MEFs) was “more potent”, the “activation of caspase-3 and cell death” value (MEFs; especially in mouse cells, MEFs treated 3 h (western blot)) was “induced activation of caspase-3 and cell death in a dose-dependent manner” and the “LPS/z-VAD-induced expression of inflammatory cytokines including TNFα, CCL3, and CXCL1” value (mouse BMDM) was “could inhibit”. For the same compound, the half-life [1] was 0.433 h, the RIPK3 dimerization-induced necroptosis (NIH3T3-RIPK3 cells) was “efficiently blocked” and the “% of CYP inhibiton 1A2” value (CYP1A2; 10 μM) was “did not inhibit”. For the same compound, the inhibition at 10 µM (CYP1A2; human, read-out: % of CYP inhibiton 1A2) was 9.26%, the Cmax ([2]; 2 mg/kg (iv)) was 1390 ng/mL and the half-life ([2]; 2 mg/kg (iv)) was 1.5 h. For the same compound, the AUC ([2]; 2 mg/kg (iv), read-out: AUC) was 990 ng·h/mL, the clearance ([2]; 2 mg/kg (iv), read-out: CL (clearance)) was 33 mL/min/kg and the Vd ([2]; 2 mg/kg (iv), read-out: Vz (volume of distribution)) was 4.4 L/kg. For the same compound, the Cmax ([2]; 10 mg/kg (po)) was 2650 ng/mL, the Tmax ([2]; 10 mg/kg (po)) was 1 h and the half-life ([2]; 10 mg/kg (po)) was 1.2 h. The AUC ([2]; 10 mg/kg (po), read-out: AUC (exposure)) was 8220 ng·h/mL, the “RIPK1 phosphorylation at S166” value [3] was “did not reduce” and the “phosphorylation of MLKL” value [3] was “abolished”. For the same compound, the “phosphorylation of RIPK3” value [3] was “abolished”, the “phosphorylation of MLKL” value [4] was “blocked” and the “phosphorylation of RIPK3” value [4] was “blocked”.
